According to patent publication US20260008758A1, “LINEAR DIPEPTIDYL PEPTIDASE 1 INHIBITORS AND USES THEREOF” (Insmed Incorporated, priority 2024, published 2026):

target: human DPP1 enzyme (Homo sapiens (Human), UniProt P53634); assay: Human DPP1 enzyme IC50 assay; format: biochemical; settings: recombinant human DPP1, H-Gly-Arg-AMC substrate 400 μM
Procedure: Test articles were applied to activated human DPP1 enzyme in Assay Buffer (25 mM MES pH 6.0, 50 mM NaCl, 5 mM DTT) in a total reaction volume of 125 μL. 25 μL of compound in Assay Buffer plus 5% DMSO was first added to 50 μL of activated human DPP1 enzyme at a concentration of 1 ng/μL and allowed to pre-incubate for 10 minutes at 37° C. after which 50 μL of 1000 μM H-Gly-Arg-AMC substrate (Bachem; St. Torrance, CA) was added, giving final substrate concentration of 400 μM and a final DMSO concentration of 1%. Substrate cleavage was measured for 90 minutes at 37° C., with fluorescence at Excitation/Emission 350/450 nm measured every 5 minutes. DPP1 concentration was interpolated based on its activity relative to a standard curve of activated human recombinant DPP1 enzyme. IC50 values for each compound were calculated via the XLFit (IDBS Version 5.3.1.3) Add-On to Microsoft Excel using the four parameter fit equation y={A+[(B-A)]/[1+((C/x)^D)]}, which appears as equation number 205 (4 Parameter Logistic Model or Sigmoidal Dose-Response Model) in XLFit. Default constraints were used for each Parameter.

Sequence of human DPP1 enzyme (P53634 25-134): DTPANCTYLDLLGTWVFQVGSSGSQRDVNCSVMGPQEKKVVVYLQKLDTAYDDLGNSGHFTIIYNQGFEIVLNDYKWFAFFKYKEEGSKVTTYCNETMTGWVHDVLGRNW
Sequence of human DPP1 enzyme (P53634 231-394): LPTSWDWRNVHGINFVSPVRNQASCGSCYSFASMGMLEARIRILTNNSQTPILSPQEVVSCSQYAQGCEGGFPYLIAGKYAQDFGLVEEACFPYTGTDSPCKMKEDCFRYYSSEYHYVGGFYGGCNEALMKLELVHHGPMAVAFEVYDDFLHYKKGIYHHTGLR
Sequence of human DPP1 enzyme (P53634 395-463): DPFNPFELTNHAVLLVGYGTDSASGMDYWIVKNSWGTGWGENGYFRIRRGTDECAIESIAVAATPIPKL

Row | SMILES | IC50 [nM]
1 | C[C@@H](N)[C@H](O)C(=O)N[C@H](C#N)Cc1ccc(-c2ccc3oc(=O)n(C)c3c2)cc1 [Compound 102A] | ≥ 15
2 | C[C@H](N)[C@H](O)C(=O)N[C@H](C#N)Cc1ccc(-c2ccc3oc(=O)n(C)c3c2)cc1 [Compound 102C] | ≥ 15
3 | CN(C)C[C@@H](O)C(=O)N[C@H](C#N)Cc1ccc(-c2ccc3oc(=O)n(C)c3c2)cc1 [Compound 104, (2R)—N-[(1S)-1-cyano-2-[4-(3-methyl-2-oxo-1,3-benzoxazol-5-yl)phenyl]ethyl]-3-(dimethylamino)-2-hydroxypropanamide] | ≥ 15
4 | CO[C@H](CN(C)C)C(=O)N[C@H](C#N)Cc1ccc(-c2ccc3oc(=O)n(C)c3c2)cc1 [Compound 112, (2R)—N-[(1S)-1-cyano-2-[4-(3-methyl-2-oxo-1,3-benzoxazol-5-yl)phenyl]ethyl]-3-(dimethylamino)-2-methoxypropanamide] | ≥ 15
5 | CN(C)C[C@@H](O)CC(=O)N[C@H](C#N)Cc1ccc(-c2ccc3oc(=O)n(C)c3c2)cc1 [Compound 113, (3S)—N-[(1S)-1-cyano-2-[4-(3-methyl-2-oxo-1,3-benzoxazol-5-yl)phenyl]ethyl]-4-(dimethylamino)-3-hydroxybutanamide] | ≥ 15
6 | CCN(CC)C[C@H](O)C(=O)N[C@H](C#N)Cc1ccc(-c2ccc3oc(=O)n(C)c3c2)cc1 [Compound 115, (2S)—N-[(1S)-1-cyano-2-[4-(3-methyl-2-oxo-1,3-benzoxazol-5-yl)phenyl]ethyl]-3-(diethylamino)-2-hydroxypropanamide] | ≥ 15
7 | CCN(CC)C[C@@H](O)C(=O)N[C@H](C#N)Cc1ccc(-c2ccc3oc(=O)n(C)c3c2)cc1 [Compound 116, (2R)—N-[(1S)-1-cyano-2-[4-(3-methyl-2-oxo-1,3-benzoxazol-5-yl)phenyl]ethyl]-3-(diethylamino)-2-hydroxypropanamide] | ≥ 15
8 | CN(C)C[C@H](O)CC(=O)N[C@H](C#N)Cc1ccc(-c2ccc3oc(=O)n(C)c3c2)cc1 [Compound 118, (3R)—N-[(1S)-1-cyano-2-[4-(3-methyl-2-oxo-1,3-benzoxazol-5-yl)phenyl]ethyl]-4-(dimethylamino)-3-hydroxybutanamide] | ≥ 15
9 | Cn1c(=O)oc2ccc(-c3ccc(C[C@@H](C#N)NC(=O)[C@@H](O)CN4CCCC4)cc3)cc21 [Compound 120, (2S)—N-[(1S)-1-cyano-2-[4-(3-methyl-2-oxo-1,3-benzoxazol-5-yl)phenyl]ethyl]-2-hydroxy-3-(pyrrolidin-1-yl)propanamide] | ≥ 15
10 | Cn1c(=O)oc2ccc(-c3ccc(C[C@@H](C#N)NC(=O)[C@@H](O)CN4CCOCC4)cc3)cc21 [Compound 121, (2S)—N-[(1S)-1-cyano-2-[4-(3-methyl-2-oxo-1,3-benzoxazol-5-yl)phenyl]ethyl]-2-hydroxy-3-(morpholin-4-yl)propanamide] | ≥ 15
11 | CCN(C)C[C@H](OC)C(=O)N[C@H](C#N)Cc1ccc(-c2ccc3oc(=O)n(C)c3c2)cc1 [Compound 130, (2S)—N-[(1S)-1-cyano-2-[4-(3-methyl-2-oxo-1,3-benzoxazol-5-yl)phenyl]ethyl]-3-[ethyl(methyl)amino]-2-methoxypropanamide] | ≥ 15
12 | CC(CO)CC(N)C(=O)N[C@H](C#N)Cc1ccc(-c2ccc3oc(=O)n(C)c3c2)cc1 (stereo partly drawn) [Compound 168, 2-amino-N-[(1S)-1-cyano-2-[4-(3-methyl-2-oxo-1,3-benzoxazol-5-yl)phenyl]ethyl]-5-hydroxy-4-methylpentanamide] | ≥ 15
13 | C[C@@H](O)[C@@](C)(N)C(=O)N[C@H](C#N)Cc1ccc(-c2ccc3oc(=O)n(C)c3c2)cc1 [Compound 171C, (2R,3R)-2-amino-N-[(1S)-1-cyano-2-[4-(3-methyl-2-oxo-1,3-benzoxazol-5-yl)phenyl]ethyl]-3-hydroxy-2-methylbutanamide] | ≥ 15
14 | CC(O)CNCC(=O)N[C@H](C#N)Cc1ccc(-c2ccc3oc(=O)n(C)c3c2)cc1 (stereo partly drawn) [Compound 174, N—((S)-1-cyano-2-(4-(3-methyl-2-oxo-2,3-dihydrobenzo[d]oxazol-5-yl)phenyl)ethyl)-2-((2-hydroxypropyl)amino)acetamide] | ≥ 15
15 | Cn1c(=O)oc2ccc(-c3ccc(C[C@@H](C#N)NC(=O)CC(N)c4ccccc4)cc3)cc21 (stereo partly drawn) [Compound 189, 3-amino-N-[(1S)-1-cyano-2-[4-(3-methyl-2-oxo-2,3-dihydro-1,3-benzoxazol-5-yl)phenyl]ethyl]-3-phenylpropanamide] | ≥ 15
16 | Cn1c(=O)oc2ccc(-c3ccc(C[C@@H](C#N)NC(=O)C(CN)Cc4cccnc4)cc3)cc21 (stereo partly drawn) [Compound 191, 3-Amino-N-[(1S)-1-cyano-2-[4-(3-methyl-2-oxo-1,3-benzoxazol-5-yl)phenyl]ethyl]-2-(pyridin-3-ylmethyl) propanamide] | ≥ 15

Row | SMILES | IC50 [nM]
17 | Cc1ccccc1CC(CN)C(=O)N[C@H](C#N)Cc1ccc(-c2ccc3oc(=O)n(C)c3c2)cc1 (stereo partly shown) [Compound 192] | ≥ 15
18 | Cc1ccccc1C[C@H](CN)C(=O)N[C@H](C#N)Cc1ccc(-c2ccc3oc(=O)n(C)c3c2)cc1 [Compound 193, (2R)-3-amino-N-[(1S)-1-cyano-2-[4-(3-methyl-2-oxo-1,3-benzoxazol-5-yl)phenyl]ethyl]-2-[(2-methylphenyl)methyl]propanamide] | ≥ 15
19 | Cc1ccccc1C[C@@H](CN)C(=O)N[C@H](C#N)Cc1ccc(-c2ccc3oc(=O)n(C)c3c2)cc1 [Compound 194, (2S)-3-amino-N-[(1S)-1-cyano-2-[4-(3-methyl-2-oxo-1,3-benzoxazol-5-yl)phenyl]ethyl]-2-[(2-methylphenyl)methyl]propanamide] | ≥ 15
20 | Cn1c(=O)oc2ccc(-c3ccc(C[C@@H](C#N)NC(=O)C(C)(CN)Cc4ccccc4F)cc3)cc21 (stereo partly drawn) [Compound 196, 3-Amino-N-[(1S)-1-cyano-2-[4-(3-methyl-2-oxo-1,3-benzoxazol-5-yl)phenyl]ethyl]-2-[(2-fluorophenyl)methyl]-2-methylpropanamide] | ≥ 15
21 | Cn1c(=O)oc2ccc(-c3ccc(C[C@@H](C#N)NC(=O)C(C)(CN)Cc4c(F)cccc4Cl)cc3)cc21 (stereo partly drawn) [Compound 197, 3-amino-2-[(2-chloro-6-fluorophenyl)methyl]-N-[(1S)-1-cyano-2-[4-(3-methyl-2-oxo-1,3-benzoxazol-5-yl)phenyl]ethyl]-2-methylpropanamide] | ≥ 15
22 | Cc1ccccc1[C@@H](N)CC(=O)N[C@H](C#N)Cc1ccc(-c2ccc3oc(=O)n(C)c3c2)cc1 [Compound 198, (3S)-3-amino-N-[(1S)-1-cyano-2-[4-(3-methyl-2-oxo-1,3-benzoxazol-5-yl)phenyl]ethyl]-3-(2-methylphenyl)propanamide] | ≥ 15
23 | Cn1c(=O)oc2ccc(-c3ccc(C[C@@H](C#N)NC(=O)C(C)(N)c4ccc(O)cc4)cc3)cc21 (stereo partly drawn) [Compound 200, 2-amino-N-[(1S)-1-cyano-2-[4-(3-methyl-2-oxo-1,3-benzoxazol-5-yl)phenyl]ethyl]-2-(4-hydroxyphenyl)propanamide] | ≥ 15
24 | Cn1c(=O)oc2ccc(-c3ccc(C[C@@H](C#N)NC(=O)C(C)(N)c4cccnc4)cc3)cc21 (stereo partly drawn) [Compound 216, 2-amino-N-[(1S)-1-cyano-2-[4-(3-methyl-2-oxo-1,3-benzoxazol-5-yl)phenyl]ethyl]-2-(pyridin-3-yl)propanamide] | ≥ 15
25 | Cn1c(=O)oc2ccc(-c3ccc(C[C@@H](C#N)NC(=O)C(N)Cc4cncc(O)c4)cc3)cc21 (stereo partly drawn) [Compound 217, 2-amino-N-[(1S)-1-cyano-2-[4-(3-methyl-2-oxo-1,3-benzoxazol-5-yl)phenyl]ethyl]-3-(5-hydroxypyridin-3-yl)propanamide] | ≥ 15
26 | Cn1c(=O)oc2ccc(-c3ccc(C[C@@H](C#N)NC(=O)C[C@@H](N)Cc4cccc(O)c4)cc3)cc21 [Compound 225, (3S)-3-amino-N-[(1S)-1-cyano-2-[4-(3-methyl-2-oxo-1,3-benzoxazol-5-yl)phenyl]ethyl]-4-(3-hydroxyphenyl)butanamide] | ≥ 15
27 | Cn1c(=O)oc2ccc(-c3ccc(C[C@@H](C#N)NC(=O)C[C@@H](N)C4CCCO4)cc3)cc21 (stereo partly drawn) [Compound 226, (3R)-3-amino-N—((S)-1-cyano-2-(4-(3-methyl-2-oxo-2,3-dihydrobenzo[d]oxazol-5-yl)phenyl)ethyl)-3-(tetrahydrofuran-2-yl)propanamide] | ≥ 15
28 | Cn1c(=O)oc2ccc(-c3ccc(C[C@@H](C#N)NC(=O)C[C@H](N)c4ccccc4O)cc3)cc21 [Compound 227A, (3S)-3-amino-N-[(1S)-1-cyano-2-[4-(3-methyl-2-oxo-1,3-benzoxazol-5-yl)phenyl]ethyl]-3-(2-hydroxyphenyl)propenamide] | ≥ 15
29 | Cn1c(=O)oc2ccc(-c3ccc(C[C@@H](C#N)NC(=O)C[C@@H](N)c4ccccc4O)cc3)cc21 [Compound 227B, (3R)-3-amino-N-[(1S)-1-cyano-2-[4-(3-methyl-2-oxo-1,3-benzoxazol-5-yl)phenyl]ethyl]-3-(2-hydroxyphenyl)propanamide] | ≥ 15
30 | Cn1c(=O)oc2ccc(-c3ccc(C[C@@H](C#N)NC(=O)CC(N)c4cocn4)cc3)cc21 (stereo partly drawn) [Compound 229, 3-amino-N-[(1S)-1-cyano-2-[4-(3-methyl-2-oxo-1,3-benzoxazol-5-yl)phenyl]ethyl]-3-(1,3-oxazol-4-yl)propanamide] | ≥ 15
31 | Cn1c(=O)oc2ccc(-c3ccc(C[C@@H](C#N)NC(=O)CC(N)Cc4cocn4)cc3)cc21 (stereo partly drawn) [Compound 230, 3-amino-N-[(1S)-1-cyano-2-[4-(3-methyl-2-oxo-1,3-benzoxazol-5-yl)phenyl]ethyl]-4-(1,3-oxazol-4-yl)butanamide] | ≥ 15
